From article PMC3924328, “Structure of the S100A4/myosin-IIA complex” (BMC Structural Biology, 2013)
The star is where a group is joined. FITC = O=C1OC2(c3ccc(O)cc3Oc3cc(O)ccc32)c2ccc(NC(=S)*)cc21; Ahx = NCCCCCC(=O)O

Key:
[1] = target: S100A4; set-up: method as in PMID 18410126; conditions: ref [4]; cited from earlier work
[2] = target: T1, S100A4Δ8C (Homo sapiens, UniProt P26447); assay: NMR titration of MIIA^1908-1923 into ^15N-labeled Ca^2+-bound S100A4Δ8C; format: binding
T1 construct: unable to crystallize the wild-type full-length S100A4 with myosin-IIA peptides; made in house; host or cells: E. coli BL21(DE3)*
T1 sequence (P26447 2-93, stated change not applied): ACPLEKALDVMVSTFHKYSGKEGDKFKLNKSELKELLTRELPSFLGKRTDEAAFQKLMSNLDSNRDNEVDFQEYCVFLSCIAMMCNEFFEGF
Description: (§1) HSQC NMR data were collected at 37°C with a 600 MHz (600.13 MHz for protons) Bruker DMX NMR spectrometer equipped with pulsed-field gradients, four frequency channels, and a triple resonance, z-axis gradient cryogenic probe, Data were processed with NMRPipe, and proton chemical shifts were reported with respect to the H2O or HDO signal taken as 4.658 ppm relative to external trimethylsilylpropionic acid (0.0 ppm). The ^15 N chemical shifts were indirectly referenced as described previously using the following ratio of the zero-point frequency: 0.10132905 for ^15 N to ^1H [56].

[3] = test system: S100A4; conditions: S100A4 bound to MIIA^1908-1923; ref [4]; cited from earlier work
Text: In this regard, we examined whether this small peptide was sufficient to induce what is termed the “final folding” event that occurs upon S100 protein-target complex formation. […] As found for other wild-type and mutant S100 proteins [[6] ...

[4] = test system: Ca^2+-S100A4; assay: Paramagnetic relaxation, titration with spin-labeled MIIA^1893-1923-Cys-Proxyl; format: binding, human; conditions: HSQC, 37°C, pH 6.5
Description: The beads containing the immobilized TCEP and other particulates were removed using a 0.45 μm Nanosep MF GHP centrifugal device (Pall Life Sciences) before the addition of 61 μl freshly prepared 50 mg/ml 3-maleimido-Proxyl (Sigma-Aldrich) in DMSO.
as §1

[5] = test system: myosin-IIA rods; conditions: assembly-competent myosin-II rod constructs; ref [19], [20]; cited from earlier work
Text: Each heavy chain is comprised of an N-terminal motor domain that contains the ATP- and actin-binding sites, an intermediate rod domain that dimerizes to form an α-helical coiled-coil and a C-terminal tailpiece.

[6] = target: T2, S100A4 (Homo sapiens, UniProt P26447); assay: Sedimentation velocity of MIIA^1851-1960, S100A4 and S100A4/MIIA^1851-1960 mixtures; format: physicochemical
T2 construct: heteronuclear single quantum coherence spectrum (HSQC) of full-length Ca^2+-S100A4 at 600 MHz; made in house; host or cells: E. coli, M9 medium with 15N NH4Cl (BL21(DE3)* is named for the unlabelled protein)
T2 sequence (P26447 2-101 limits assumed, one chain of several): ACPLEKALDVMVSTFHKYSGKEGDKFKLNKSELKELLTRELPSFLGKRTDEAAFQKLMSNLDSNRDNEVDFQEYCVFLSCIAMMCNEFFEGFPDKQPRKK
Description: Sedimentation equilibrium and velocity experiments were conducted at 22°C in a Beckman XL-I analytical ultracentrifuge using a Ti60 rotor and Raleigh interference optics. Wild-type S100A4 and MIIA^1851-1960 were dialyzed into 20 mM Tris pH 7.5, 150 mM KCl, 0.5 mM CaCl2, 1 mM TCEP and 0.02% NaN3 and clarified by ultracentrifugation at 80,000 rpm for 10 minutes at 4°C in TLA 120.2 rotor. Sedimentation equilibrium analysis of MIIA^1851-1960 and S100A4 was conducted in six channel centerpieces by sequentially equilibrating the protein at three concentrations for 24 hr at 12,000, 20,000 and 28,000 rpm and globally analyzing the data using HeteroAnalysis v1.1.44 (James L. Cole and Jeffrey W. Lary). The sedimentation velocity experiments were conducted at 53,000 rpm using double sector centerpieces and analyzed using DCDT + v2.4.0 [57, 58]. The best-fit parameters and their 95% joint confidence intervals are reported. The calculated masses of the wild-type S100A4 and MIIA^1851-1960 monomers are 11,597.3 and 12,397.5 Da, respectively. Values of ν-bar = 0.715 for S100A4/MIIA^851-1960 and 0.735 for S100A4, ρ = 1.0059, μ = 1.00586 cp were calculated using Sednterp v1.06 (Hayes, B., T. Laue & J. Philo, Sedimentation Interpretation Program. 2003, University of New Hampshire) from the amino acid and buffer compositions, respectively.

[7] = submicromolar concentrations; ref [4], [27], [30]; cited from earlier work
Description: Given the similarity in the molecular weights of the S100A4 and MIIA^1851-1960 dimers, the S100A4/MIIA^1851-1960 complex was further evaluated in sedimentation velocity experiments where MIIA^1851-1960 was added to S100A4 at increasing molar ratios. […] At a molar ratio of 0.5:1 MIIA^1851-1960 dimer to S100A4 dimer there was a shift in the S val ...

[8] = test system: myosin-IIA rods (MIIA^1339−1960); assay: Promotion of disassembly assay, assembled myosin-IIA rods; format: biochemical; conditions: one S100A4Δ8C dimer per myosin-IIA rod; 1.5 μM S100A4 dimer, 1.5 μM rod dimer; 20 mM Tris–HCl pH 7.5, 150 mM NaCl, 1 mM DTT, 2 mM MgCl2, 0.5 mM CaCl2, 0.02% NaN3; 2 hr, 22°C; SDS-PAGE densitometry; two independent experiments
Description: Assays comparing the ability of wild-type and the Δ8C S100A4 to depolymerize assembled myosin-IIA rods were performed as described in Li et al., using 1.5 μM S100A4 dimer and 1.5 μM myosin-IIA rod dimer in 20 mM Tris–HCl pH 7.5, 150 mM NaCl, 1 mM DTT, 2 mM MgCl2, 0.5 mM CaCl2, and 0.02% NaN3. Reaction mixtures (100 μl) were incubated for 2 hr at 22°C and then centrifuged at 80,000 rpm (175000 g) for 10 min at 25°C in a TL-100 ultracentrifuge (Beckman). Samples of the reaction mixtures and supernatants were separated on a 12% Tris-Tricine SDS-polyacrylamide gel. Coomassie-stained gels were scanned and the extent of myosin-IIA polymerization was quantified by densitometry and analyzed with the ImageQuant version 5.2.

[9] = target: T1, S100A4Δ8C; assay: Fluorescence anisotropy, FITC-MIIA^1904-1927 binding to S100A4Δ8C; conditions: 22°C, 5 mM EGTA, data not shown
Description: Fluorescence anisotropy measurements were performed at 22°C using a Fluoromax-3-spectrofluorometer (Jobin Yvon). Individual reactions (200 μl) contained 50 nM FITC-MIIA^1904-1927 and 0–30 μM S100A4Δ8C dimer in 20 mM Tris pH 7.5, 150 mM KCl, 1 mM DTT, 0.02% NaN3, 0.5 mM CaCl2 and 0.5 mg/ml BSA. For competition anisotropy measurements individual reactions contained 50 nM FITC-MIIA^1904-1927, 0.3 μM S100A4 dimer and 0–10 μM MIIA^1851-1960 dimer as described above. Controls included experiments representing maximum anisotropy (15 μM wild-type S100A4 and S100A4Δ8C, 50 nM FITC-MIIA^1904-1927 and calcium) and minimum anisotropy (in the absence of S100A4 and in the presence of S100A4 and 5 mM EGTA). Anisotropy was measured using excitation and emission wavelengths of 490 nm and 520 nm, respectively. Measurements were acquired at the magic angle of 55° between the vectors of polarization of the excitation and emission light using a G factor of 0.634 as determined previously for FITC on this instrument. For measurements of S100A4Δ8C binding, data from two independent experiments were plotted using Graphpad Prism v5, and the dissociation constant was calculated by fitting to a single site saturation binding equation allowing for a floating Ymin value. […]

[10] = sedimentation velocity, 22°C, protein alone

Ac-RRKLQRELEDATETADAMNREVSSLKNKLRR-CONH2 [MIIA^1893-1923]
Dissociation constant, in words [1]: in the nanomolar range

Ace-DAMNREVSSLKNKLRR-CONH2 [MIIA^1908-1923]
Binding orientation to S100A4Δ8C versus wild-type S100A4 ([2]; 37°C, pH 6.5, 10 mM CaCl2): very similar structure/orientation in solution as observed for wild-type S100A4
Exchange broadening of Ca^2+-bound S100A4Δ8C upon complex formation ([2]; data not shown): exchange broadening completely disappeared
Ca^2+-binding affinity of S100A4 when peptide bound [3]: higher Ca^2+-binding affinity

MIIA^1893-1923-Cys-Proxyl: MIIA^1893-1923-Cys labeled with 3-maleimido-Proxyl spin label
Residues with large reductions in cross-peak intensities ([4]; 2.6 μM spin-labeled peptide): loop 1 (Asp25), the beginning of helix 3 (Asp51, Glu52) and in the C-terminal loop (Lys100)
Location of peptide C-terminus on S100A4 by paramagnetic relaxation ([4]; 2.6 and 5.3 μM spin-labeled peptide): near residues in helix 3 and the hinge (Leu46, Gly47, Asp51, Glu52

S100A4: untagged, full-length human S100A4
Myosin-II isoform preference [5]: preferentially recognizes and disassembles myosin-IIA rods
Effect of S100A4 binding on dimeric myosin-IIA construct ([6]; longer, dimeric myosin-IIA construct): dissociates the two myosin-IIA polypeptide chains to form a complex composed of one S100A4 dimer and a single myosin-IIA polypeptide chain
Peak 1 S20,w ([6]; sedimentation velocity, 22°C, 53,000 rpm, protein alone, 20 mM Tris pH 7.5, 150 mM KCl, 0.5 mM CaCl2, 1 mM TCEP, 0.02% NaN3): 1.90 ± 0.01
Peak 1 MW [6, 10]: 21.2 ± 0.3 kDa
S value [6, 10]: 1.9 S
[Peak 1] (green), relative amount of plateau concentrations [6, 10]: 2.00 ± 0.02
Dimer stability [7]: thermostable dimer at submicromolar concentrations

S100A4Δ8C: S100A4 deletion mutant (deletion of the C-terminal eight amino acids)
Myosin-IIA filaments disassembled [8]: approximately 85%

{FITC-Ahx}-TETADAMNREVSSLKNKLRRGDLP-NH2 [FITC-MIIA^1904-1927]
Binding to S100A4Δ8C in the presence of EGTA [9]: no binding was observed
